Results as given in US20160151305A1, “AGENT OR METHOD FOR TREATEMENT AND/OR PREVENTION OF ACCELERATED ENERGY EXPENDITURE AND/OR DIMINISHED ENERGY EXPENDITURE FUNCTIONALITY” (MATSUTANI CHEMICAL INDUSTRY CO., LTD., priority 2013, published 2016).
Entries after “also recorded” stand apart in the source; their conditions may differ.

What was measured:
[1] = Sensory test by continuous administration of D-psicose in humans (interview); type: in vivo; details: for Changes: Body became easier to move (number of subjects) / Changes: Body felt lighter (number of subjects) / Changes: Body felt warmer (number of subjects) / Changes: Felt better (number of subjects) / Changes: Felt less fatigue (number of subjects) / Changes: No change (number of subjects): 5 healthy humans, once a day for 2 weeks, sample A = D-psicose 1.0 g, B = 2.5 g, C = 5.0 g
Procedure: The test was conducted for 5 healthy individuals with no smoking habit (average age of 35.0; 3 males and 2 females). Prior to the experiment, the subjects were fully informed of the experiment contents in line with the guidelines of the Declaration of Helsinki, and the experiment was conducted with the informed consent of all subjects. The subjects were each asked to continuously take sample A (D-psicose, 1.0 g), once a day for 2 weeks. The subjects were then interviewed to see if there was any physical changes. After 1 week, the same subjects were continuously given sample B (D-psicose, 2.5 g) for 2 weeks in the same manner as for sample A, and were interviewed again. The same procedure was repeated after 1 week by continuously giving sample C (D-psicose, 5.0 g) to the same subjects, followed by an interview.

[2] = Metabolism test by single administration of D-psicose in humans (indirect calorimetry of breath); type: in vivo
Procedure: Effects of single administration of D-psicose on energy expenditure, carbohydrate combustion, and lipid combustion were examined in humans. Energy metabolism was calculated by indirect calorimetry from measurements of subjects' breath (oxygen consumption and carbon dioxide discharge). The test was conducted by a single-blinded crossover study of two groups of 6 healthy individuals with no smoking habit (average age of 34.8; 3 males and 3 females; average BMI 21.4 kg/m^2). Prior to the experiment, the subjects were fully informed of the experiment contents in line with the guidelines of the Declaration of Helsinki, and the experiment was conducted with the informed consent of all subjects. The subjects were fasted for 12 hours before starting the test, and were each given a test solution (150 ml) prepared by adding 5 g of D-psicose, or a test solution (150 ml) prepared by adding 10 mg of high sweetener aspartame to provide the same sweetness as control food. The concentration of the test solution was 3.3% for the D-psicose group, and 0.005% for the aspartame group. After giving the test solution, the subjects were given breakfast (hamburg steak with rice; total calorie: 571 kcal; protein 13.4%, lipid 25.3%, carbohydrate 61.3%). After the breakfast, the subjects were rested on the bed for 20 min in the resting supine position to acclimate to the environment, and the breath was measured with an Aero Monitor AE-310S (Minato Medical Science) connected to a breathing hood. The measurement was ended after 4 hours from the breakfast. During the measurement, the oxygen consumption and the carbon dioxide discharge of each subject were recorded every minute, and energy expenditure, carbohydrate combustion, and lipid combustion were calculated from the measured values using the Elwyn energy equation. Throughout the breath measurement, the subjects were rested on the bed in the resting supine position, and were kept awake and fasted. The results were divided by subject ‘ s body weights, and were represented as mean values and standard deviation. […]

[3] = Human tests, single D-psicose administration with pure carbohydrate food, energy expenditure; type: in vivo; details: humans
[4] = Metabolism test by single oral administration of D-psicose in rats (indirect calorimetry); type: in vivo, male Sprague-Dawley rats; details: glucose+fructose+psicose (+Psi group) vs glucose+fructose (-Psi group), mean value every 12 minutes, FIG. 1
From the text: Effects of single oral administration of D-psicose on energy metabolism were examined using male Sprague-Dawley rats (7 weeks of age; purchased from CLEA Japan). The rats were preliminarily maintained for 1 week with a commercially available solid feed (CE-2; CLEA Japan), and were divided into 3 groups so as to be uniform in body weight upon measuring the body weight (each group contained eight rats).
The rats were individually put in a cage of a respiratory metabolism measurement system for small animals MK-5000 (Muromachi Kikai Co., Ltd.) at 16 o'clock on the day before a calorimetric test. The rats were measured by indirect calorimetry, and acclimated in the dark without food (dark period).
The rats were placed under a light at 10 o'clock next morning (light period). […] The solution concentrations are different to match total energy amounts. […] For the rest of the experiment, the rats were allowed access to only purified water, and the calorific value was continuously measured until 10 o'clock next day at 23° C. under light.
Resting energy metabolism (resting energy expenditure; hereinafter, “REE”, kcal/min) was calculated by using the Weir equation, and the result was divided by body weight (hereinafter, “BW”, in kg). The mean of measured values from 12 min to 60 min before the administration was regarded as a value at hour 0, and amounts of change were calculated over time. […]

[5] = Metabolism test by long-term administration of D-psicose in rats (hourly energy expenditure); type: in vivo, male Wistar rats; details: feed with 50.0 g/kg D-psicose + sucrose vs sucrose group, after 5 to 7 weeks, at hour 11 in the light period and hour 5 and 6 in the dark period, FIG. 2
From the text: Effects of long-term administration of D-psicose on energy metabolism were examined using male Wistar rats (3 weeks of age; purchased from Japan SLC). The rats were preliminarily maintained for 1 week with a commercially available powder feed (product name MF; Oriental Yeast Co., Ltd.), and were divided into 2 groups so as to be uniform in body weight upon measuring the body weight (each group contained eight rats). The two groups are a sucrose administered group, and a sucrose+D-psicose administered group.
The two groups of rats were allowed free access to experiment feed (Table 2) and water, and maintained under specific conditions (temperature 22±1° C., humidity 58±2%, light period 8:00 to 20:00, dark period 20:00 to 8:00 next morning). The energy metabolism was measured 5 to 7 weeks after the experiment feed was given. […] The rat breath and the room air were collected into a Douglas bag (Fukuda Sangyo) at 1-hour intervals, and the oxygen and carbon dioxide concentrations were measured with a gas concentration analyzers G-102 and LX-710 (Iijima Electronics Corporation) for 24 hours. The amounts of oxygen consumed by the rat, and the amount of generated carbon dioxide were calculated from the oxygen concentration and the carbon dioxide concentration in the breath, and the oxygen concentration and the carbon dioxide concentration in room air. […]

[6] = 5 g D-psicose immediately before lipid-containing breakfast vs aspartame control, 20 minutes to 4 hours from breakfast, FIG. 3

Row | Structure (SMILES) | Changes: Body became easier to move (number of subjects) [1] | Changes: Body felt lighter (number of subjects) [1] | Changes: Body felt warmer (number of subjects) [1] | Changes: Felt better (number of subjects) [1] | Changes: Felt less fatigue (number of subjects) [1] | Changes: No change (number of subjects) [1] | interview result on repeat test ([1]; humans, sample A (D-psicose 1.0 g) again for 2 weeks, 1 week after testing with sample C) | physical changes reported in interview ([1]; humans, continuous intake of 2.5 g or more of D-psicose for 2 weeks) | energy expenditure (REE) per body weight [2, 6] | lipid combustion (FEE) per body weight [2, 6] | energy metabolism result at lower dose ([2]; single D-psicose dose 2.4 g) | effect on energy expenditure [3] | AREE/BW (change of resting energy expenditure per body weight, water group subtracted) [4] | hourly energy expenditure per measured rat weight [5]
1 | O=C(CO)[C@H](O)[C@H](O)[C@H](O)CO [A, D-psicose] | 1 | 1 | 1 | 1 | 1 | 4 | produced the same result | – | – | – | – | – | – | –
2 | O=C(CO)[C@H](O)[C@H](O)[C@H](O)CO [B, D-psicose] | 2 | 3 | 3 | 2 | 2 | 0 | – | – | – | – | – | – | – | –
3 | O=C(CO)[C@H](O)[C@H](O)[C@H](O)CO [C, D-psicose] | 3 | 5 | 5 | 2 | 2 | 0 | – | – | – | – | – | – | – | –
4 | O=C(CO)[C@H](O)[C@H](O)[C@H](O)CO [D-psicose] | – | – | – | – | – | – | – | The subjects all experienced some changes; also recorded: increase or improve body temperature and other sensations | significantly increased | significantly increased | did not show any difference | did not have effect on energy expenditure | no significant difference | significantly higher
